The text below walks through data of US8680012B2, “4-phenyl-pyrane-3,5-diones,4-phenyl-thiopyrane-3,6-diones and cyclohexanetriones as novel herbicides” (Syngenta Crop Protection LLC, priority 2006, dated 2014).

Assay type in all cases: in vivo
The subject of assay [1] is Alopecurus myosuroides (ALOMY). Description: Example B pre-emergence herbicidal activity, glasshouse pot test. Particulars: 312 h, rate 250 g/ha, evaluated after 13 days, read-out: Pre-emergence activity ALOMY (100=total damage to plant; 0=no damage to plant). The procedure, abridged:
(§1)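 Visual injury score (0 none to 100 total plant damage) recorded 13 days after spraying. Plants received an aqueous spray of compound in 50:50 acetone/water with 0.5% Tween 20, either one day after sowing or after eight days of cultivation, in pots kept under controlled glasshouse conditions.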

For assay [2], the system named is Amaranthus retroflexus (AMARE). Described as above. To be noted: 312 h, rate 250 g/ha, evaluated after 13 days, read-out: Pre-emergence activity AMARE (100=total damage to plant; 0=no damage to plant). The procedure, abridged: as §1
Assay [3] has as its system Avena fatua (AVEFA). Described as above. Particulars: 312 h, rate 250 g/ha, evaluated after 13 days, read-out: Pre-emergence activity AVEFA (100=total damage to plant; 0=no damage to plant). The procedure, abridged: as §1
In assay [4] the test system is Echinochloa crus-galli (ECHCG). The description is as above. Particulars: 312 h, rate 250 g/ha, evaluated after 13 days, read-out: Pre-emergence activity ECHCG (100=total damage to plant; 0=no damage to plant). The procedure, abridged: as §1
The subject of assay [5] is Setaria faberi (SETFA). Described as above. To be noted: 312 h, rate 250 g/ha, evaluated after 13 days, read-out: Pre-emergence activity SETFA (100=total damage to plant; 0=no damage to plant). In a few lines:
as §1

Assay [6] has as its system Alopecurus myosuroides (ALOMY). In words: Example B post-emergence herbicidal activity, glasshouse pot test. To be noted: 312 h, rate 250 g/ha, evaluated after 13 days, read-out: Post-emergence activity ALOMY (100=total damage to plant; 0=no damage to plant). The procedure, abridged:
as §1

Assay [7] concerns Amaranthus retroflexus (AMARE). The description is as above. Particulars: 312 h, rate 250 g/ha, evaluated after 13 days, read-out: Post-emergence activity AMARE (100=total damage to plant; 0=no damage to plant). The procedure, abridged:
as §1

For assay [8], the system named is Avena fatua (AVEFA). Described as above. To be noted: 312 h, rate 250 g/ha, evaluated after 13 days, read-out: Post-emergence activity AVEFA (100=total damage to plant; 0=no damage to plant). The procedure, abridged:
as §1

For assay [9], the system named is Echinochloa crus-galli (ECHCG). The description is as above. To be noted: 312 h, rate 250 g/ha, evaluated after 13 days, read-out: Post-emergence activity ECHCG (100=total damage to plant; 0=no damage to plant). The procedure, abridged: as §1
Assay [10] has as its system Setaria faberi (SETFA). The description is as above. To be noted: 312 h, rate 250 g/ha, evaluated after 13 days, read-out: Post-emergence activity SETFA (100=total damage to plant; 0=no damage to plant). In a few lines: as §1

Regarding `CCc1ccc(-c2ccc(Cl)cc2OC)cc1C1=C(O)C(C)(C)OC(C)(C)C1=O` [Compound A-65], the pest or weed control at 250 g/ha turned out to be 0% in assay [1]; 0% in assay [2]; 0% in the assay on Avena fatua (AVEFA) [3]; 90% in assay [4]; 0% in the assay on Setaria faberi (SETFA) [5]; 20% in assay [6]. In addition, the pest or weed control at 250 g/ha in assay [7] stood at 10%; with Avena fatua (AVEFA) [8], 0%; in assay [9] it was 90%; in the assay with Setaria faberi (SETFA) [10], 70%.
On to `CCc1ccc(-c2ccc(Cl)c(C#N)c2)cc1C1=C(O)C(C)(C)OC(C)(C)C1=O` [Compound A-69], for which the pest or weed control at 250 g/ha is 0% in assay [1]; 0% in assay [2]; 0% with Avena fatua (AVEFA) [3]; 60% in [4]; 80% in the assay on Setaria faberi (SETFA) [5]; 70% in [6]. In addition, the pest or weed control at 250 g/ha came out at 90% in assay [7], 90% in the assay on Avena fatua (AVEFA) [8], 100% in assay [9] and 100% with Setaria faberi (SETFA) [10].
With `CCc1ccc(-c2ccc(Br)cc2)cc1C1=C(O)C(C)(C)OC(C)(C)C1=O` [Compound A-81], the pest or weed control at 250 g/ha in assay [1] is 80%; in assay [2], 0%; with Avena fatua (AVEFA) [3] it was 90%; in assay [4] it was 100%; in the assay with Setaria faberi (SETFA) [5], 100%; in [6], 100%. In addition, the pest or weed control at 250 g/ha in [7] was 0%; in the assay on Avena fatua (AVEFA) [8], 100%; in [9], 100%; in the assay with Setaria faberi (SETFA) [10], 100%.
With `CCc1ccc(-c2ccc(Cl)cc2C)cc1C1=C(O)C(C)(C)OC(C)(C)C1=O` [Compound A-64], the pest or weed control at 250 g/ha in assay [1] came out at 0%; in [2] it was 0%; in the assay on Avena fatua (AVEFA) [3] it was 20%; in [4], 40%; in the assay with Setaria faberi (SETFA) [5], 40%; in assay [6], 20%. Further, the pest or weed control at 250 g/ha in [7] was 20%; in the assay with Avena fatua (AVEFA) [8], 0%; in assay [9], 100%; in the assay on Setaria faberi (SETFA) [10], 90%.
In the case of `Cc1ccc(-c2ccc(Cl)c(F)c2)cc1C1=C(O)C(C)(C)SC(C)(C)C1=O` (single isomer, unassigned) [Compound C-9], the pest or weed control at 250 g/ha in [1] came out at 0%; in assay [2] it was 0%; in the assay with Avena fatua (AVEFA) [3], 0%; in assay [4], 0%; in the assay on Setaria faberi (SETFA) [5], 0%; in assay [6], 50%. Moreover, the pest or weed control at 250 g/ha was found to be 0% in assay [7], 40% in the assay on Avena fatua (AVEFA) [8], 70% in [9] and 10% in the assay with Setaria faberi (SETFA) [10].
Turning to `COc1ccc(-c2ccc(Cl)cc2F)cc1C1=C(O)C(C)(C)OC(C)(C)C1=O` [Compound A-103], the pest or weed control at 250 g/ha in assay [1] was found to be 0%; in assay [2], 0%; in the assay with Avena fatua (AVEFA) [3], 0%; in assay [4], 0%; in the assay on Setaria faberi (SETFA) [5], 0%; in assay [6], 10%. Besides, the pest or weed control at 250 g/ha in assay [7] was 0%; with Avena fatua (AVEFA) [8] it was 0%; in [9], 100%; with Setaria faberi (SETFA) [10], 100%.
Turning to `CCc1ccc(-c2ccc(Cl)c(F)c2)cc1C1=C(O)[C@]2(C)O[C@@H](CC2COC)C1=O` (stereo partly shown) [Compound A-127], the pest or weed control at 250 g/ha in [1] stood at 30%; in assay [2] it was 0%; with Avena fatua (AVEFA) [3], 70%; in [4], 50%; in the assay on Setaria faberi (SETFA) [5], 90%; in assay [6], 80%. In addition, the pest or weed control at 250 g/ha in [7] was found to be 0%; with Avena fatua (AVEFA) [8], 40%; in assay [9], 100%; in the assay with Setaria faberi (SETFA) [10] it was 100%.
Regarding `CCOc1ccc(-c2ccc(Cl)cc2Cl)cc1C1=C(O)C(C)(C)OC(C)(C)C1=O` [Compound A-87], the pest or weed control at 250 g/ha worked out at 0% in [1]; 0% in assay [2]; 0% in the assay with Avena fatua (AVEFA) [3]; 0% in [4]; 0% with Setaria faberi (SETFA) [5]; 10% in [6]. Moreover, the pest or weed control at 250 g/ha was 0% in assay [7], 0% in the assay with Avena fatua (AVEFA) [8], 80% in assay [9] and 80% in the assay with Setaria faberi (SETFA) [10].
With `Cc1cc(C)c(-c2ccc(Cl)cc2)c(C)c1C1=C(O)C(C)(C)OC(C)(C)C1=O` [Compound A-92], the pest or weed control at 250 g/ha in [1] worked out at 10%; in assay [2], 0%; with Avena fatua (AVEFA) [3], 0%; in [4] it was 50%; with Setaria faberi (SETFA) [5], 60%; in assay [6] it was 50%. The pest or weed control at 250 g/ha in assay [7] was determined as 0%; in the assay on Avena fatua (AVEFA) [8], 0%; in assay [9] it was 100%; in the assay on Setaria faberi (SETFA) [10], 90%.
As for `CCc1ccc(-c2ccc(Cl)nc2Cl)cc1C1=C(O)C(C)(C)OC(C)(C)C1=O` [Compound A-75], the pest or weed control at 250 g/ha worked out at 30% in assay [1]; 0% in assay [2]; 30% in the assay with Avena fatua (AVEFA) [3]; 90% in assay [4]; 90% with Setaria faberi (SETFA) [5]; 90% in assay [6]. In addition, the pest or weed control at 250 g/ha in assay [7] was 0%; in the assay with Avena fatua (AVEFA) [8] it was 90%; in assay [9] it was 100%; with Setaria faberi (SETFA) [10], 100%.
Consider `CCC(=O)OC1=C(c2cc(-c3ccc(Cl)cc3Cl)ccc2CC)C(=O)C(C)(C)OC1(C)C` [Compound D-25], for which the pest or weed control at 250 g/ha stood at 20% in assay [1]; 0% in assay [2]; 0% in the assay with Avena fatua (AVEFA) [3]; 90% in assay [4]; 90% in the assay on Setaria faberi (SETFA) [5]; 0% in [6]. Moreover, the pest or weed control at 250 g/ha in [7] was determined as 0%; in the assay on Avena fatua (AVEFA) [8] it was 20%; in assay [9], 90%; in the assay with Setaria faberi (SETFA) [10] it was 90%.
Consider `CCOc1ccc(-c2ccc(Cl)cc2)cc1C1=C(O)C(C)(C)OC(C)(C)C1=O` [Compound A-89], for which the pest or weed control at 250 g/ha in [1] stood at 0%; in [2], 0%; in the assay on Avena fatua (AVEFA) [3], 0%; in assay [4], 0%; with Setaria faberi (SETFA) [5], 50%; in [6], 80%. In addition, the pest or weed control at 250 g/ha in assay [7] was determined as 0%; in the assay with Avena fatua (AVEFA) [8] it was 50%; in [9] it was 90%; in the assay with Setaria faberi (SETFA) [10], 80%.
Take `CCOc1ccc(-c2ccc(Cl)cc2F)cc1C1=C(O)C(C)(C)OC(C)(C)C1=O` [Compound A-88]: the pest or weed control at 250 g/ha in [1] came out at 0%; in assay [2], 0%; with Avena fatua (AVEFA) [3], 10%; in assay [4], 0%; in the assay with Setaria faberi (SETFA) [5], 0%; in assay [6], 50%. Further, the pest or weed control at 250 g/ha in assay [7] turned out to be 0%; in the assay on Avena fatua (AVEFA) [8], 10%; in assay [9] it was 90%; in the assay on Setaria faberi (SETFA) [10] it was 90%.
